{"source": "patent US12122789B2", "about": "“Forms of pyrido[1,2-a]pyrimidin-4-one derivatives, its formulation and its process of making” (Hoffmann-La Roche Inc., priority 2018, dated 2024)", "key": {"[1]": {"assay": "hygroscopicity (water uptake according to European Pharmacopoeia)", "format": "physicochemical"}, "[2]": {"assay": "chemical stability of the solid form", "format": "physicochemical", "settings": "compared to Form D"}, "[3]": {"assay": "relative thermodynamic stability of crystal forms (equilibration of suspensions)", "format": "physicochemical", "settings": "for thermodynamic stability of the polymorph: in particular between 5° C. to 65° C.", "excerpt": "Alternatively, Form A can be obtained upon equilibration of solid 7-(4,7-diazaspiro[2.5]octan-7-yl)-2-(2,8-dimethylimidazo[1,2-b]pyridazin-6-yl)pyrido[1,2-a]pyrimidin-4-one suspended in organic solvents or a mixture thereof for prolonged time. In particular 7-(4,7-diazaspiro[2.5]octan-7-yl)-2-(2,8-dimethylimidazo[1,2-b]pyridazin-6-yl)pyrido[1,2-a]pyrimidin-4-one can be suspended in ethanol, methyl ethyl ketone, ethyl acetate, or dioxane at ambient temperature or at elevated temperature (e.g. 22 to 65° C.) for 2-3 weeks affording 7-(4,7-diazaspiro[2.5]octan-7-yl)-2-(2,8-dimethylimidazo[1,2-b]pyridazin-6-yl)pyrido[1,2-a]pyrimidin-4-one as Form A.\nForm D can be obtained by equilibration of solid 7-(4,7-diazaspiro[2.5]octan-7-yl)-2-(2,8-dimethylimidazo[1,2-b]pyridazin-6-yl)pyrido[1,2-a]pyrimidin-4-one suspended in water or water containing organic solvents for prolonged time. 7-(4,7-diazaspiro[2.5]octan-7-yl)-2-(2,8-dimethylimidazo[1,2-b]pyridazin-6-yl)pyrido[1,2-a]pyrimidin-4-one can be suspended in water or mixtures of organic solvent and water, in particular in ethanol/water mixtures. In particular, the mixture can be left in equilibration for 2-3 weeks in water or in ethanol/water 20/80 v/v at 65° C. to afford 7-(4,7-diazaspiro[2.5]octan-7-yl)-2-(2,8-dimethylimidazo[1,2-b]pyridazin-6-yl)pyrido[1,2-a]pyrimidin-4-one as Form D. In particular, the mixture can be left in equilibration for 2-3 weeks in water or in ethanol/water 20/80 v/v to 50/50 v/v to 80/20 v/v at approx. 22° C. to afford 7-(4,7-diazaspiro[2.5]octan-7-yl)-2-(2,8-dimethylimidazo[1,2-b]pyridazin-6-yl)pyrido[1,2-a]pyrimidin-4-one as Form D."}, "[4]": {"tested_on": "exon 7 of SMN1 and/or SMN2", "assay": "inclusion of exon 7 into mRNA transcribed from the SMN1 and/or SMN2 gene", "settings": "increasing expression of SMN protein in a human subject"}}, "data": [{"smiles": "Cc1cn2nc(-c3cc(=O)n4cc(N5CCNC6(CC6)C5)ccc4n3)cc(C)c2n1", "note": "[Form A, 7-(4,7-diazaspiro[2.5]octan-7-yl)-2-(2,8-dimethylimidazo[1,2-b]pyridazin-6-yl)pyrido[1,2-a]pyrimidin-4-one]", "values": [{"measurement": "hygroscopicity", "setting": "[1]", "value": "non-hygroscopic to slightly hygroscopic"}, {"measurement": "water uptake", "setting": "[1]", "value": "< 2", "unit": "%"}, {"measurement": "chemical stability", "setting": "[2]", "value": "improved chemical stability"}, {"measurement": "thermodynamic stability of the polymorph", "setting": "[3]", "value": "thermodynamic stable polymorph"}]}, {"smiles": "Cc1cn2nc(-c3cc(=O)n4cc(N5CCNC6(CC6)C5)ccc4n3)cc(C)c2n1", "note": "[Form B, 7-(4,7-diazaspiro[2.5]octan-7-yl)-2-(2,8-dimethylimidazo[1,2-b]pyridazin-6-yl)pyrido[1,2-a]pyrimidin-4-one]", "values": [{"measurement": "thermodynamic stability of the polymorph", "setting": "[3]", "value": "metastable polymorph"}]}, {"smiles": "Cc1cn2nc(-c3cc(=O)n4cc(N5CCNC6(CC6)C5)ccc4n3)cc(C)c2n1", "note": "[Form D, 7-(4,7-diazaspiro[2.5]octan-7-yl)-2-(2,8-dimethylimidazo[1,2-b]pyridazin-6-yl)pyrido[1,2-a]pyrimidin-4-one]", "values": [{"measurement": "stability of the hydrated form", "setting": "[3]; with sufficiently high water activity", "value": "stable hydrated form"}]}, {"smiles": "Cc1cn2nc(-c3cc(=O)n4cc(N5CCNC6(CC6)C5)ccc4n3)cc(C)c2n1", "note": "[Form G, 7-(4,7-diazaspiro[2.5]octan-7-yl)-2-(2,8-dimethylimidazo[1,2-b]pyridazin-6-yl)pyrido[1,2-a]pyrimidin-4-one]", "values": [{"measurement": "thermodynamic stability of the polymorph", "setting": "[3]", "value": "metastable polymorph"}]}, {"smiles": "Cc1cn2nc(-c3cc(=O)n4cc(N5CCNC6(CC6)C5)ccc4n3)cc(C)c2n1", "note": "[compound of formula (I), 7-(4,7-diazaspiro[2.5]octan-7-yl)-2-(2,8-dimethylimidazo[1,2-b]pyridazin-6-yl)pyrido[1,2-a]pyrimidin-4-one]", "values": [{"measurement": "inclusion of exon 7 of SMN1 and/or SMN2 into mRNA", "setting": "[4]", "value": "enhance inclusion of exon 7"}]}]}
